Reference: patent publication US7625887B2, “Receptor agonists” (Takeda Pharmaceutical Company Limited, priority 2003, dated 2009)
pEC50: −log10 of the molar value.

How the values were obtained:
[1] = test system: NCI-H716 cells; assay: intracellular cAMP production increasing action in NCI-H716 cells; type: cell-based, human; settings: 2 hrs, production amount in TLCA (50 μM) was 100%, Base 11
Description: NCI-H716 (ATCC) was suspended in a medium (Dulbecco's Modified Eagle Medium (DMEM, Invitrogen) supplemented with 10% fetal bovine serum (Invitrogen), 100 U/ml penicillin and 100 μg/ml streptomycin), seeded in a 96 well plate, cultured for 2 days and used for cAMP production assay. As a cAMP assay buffer, modified Krebs-Ringer bicarbonate buffer (KRBH, 116 mM NaCl, 4.7 mM KCl, 1.2 mM KH2PO4, 1.2 MM MgSO4, 2.5 mM CaCl2, 25 mM NaHCO3, 24 mM HEPES pH 7.3), supplemented with glucose 5.5 mM, bovine serum albumin (BSA) 0.1%, and 3-isobutyl-1-methylxanthine (IBMX, Sigma) 1 mM, was used. The cells were washed once with cAMP assay buffer. Bile acids (50 μM) diluted with cAMP assay buffer or the compounds of the present invention (10 μM) were added thereto and the cells were incubated for 2 hrs. The culture supernatant was discarded, and the cAMP production amount was measured by cAMP Screen System (ABI). In the Table, Base means non-addition of a test compound.

[2] = test system: NCI-H716 cells; assay: GLP-1 secretion from NCI-H716 cell line; type: cell-based, human; settings: 2 hrs, secretion amount in Base was 100%
Description: NCI-H716 cells secrete Glucagon-like peptide-1 (GLP-1). GLP-1 is a peptide useful for controlling blood glucose level because it acts on the pancreas to cause secretion of insulin and the like. In the same manner as in Experimental Example 9, NCI-H716 (ATCC) was seeded in a 96 well plate and, after incubation for 2 days, used for the following secretion test. As a buffer for secretion test, modified Krebs-Ringer bicarbonate buffer (KRBH, 116 mM NaCl, 4.7 mM KCl, 1.2 mM KH2PO4, 1.2 mM MgSO4, 2.5 mM CaCl2, 25 mM NaHCO3, 24 mM HEPES, pH 7.3) supplemented with glucose 5.5 mM and BSA 0.1% was used. The cells were washed once with the buffer for secretion test, preincubated at 37° C. under 5% CO2, bile acid diluted with the buffer for secretion test was added and the cells were cultured at 37° C. under 5% CO2 for 2 hrs. The cell culture supernatant was collected, cryopreserved and the GLP-1 content in the supernatant was measured using a GLP-1 measurement EIA kit (Linco) The results are shown in Table 9. In the Table, Base means non-addition of a test compound.

[3] = test system: guinea pig TGR5; assay: cAMP production increasing activity in guinea pig TGR5 expressing CHO cells; type: cell-based; settings: test compound 2 μM; 10 μM lithocholic acid = 100%; average of 3 groups
Description: (§1) The guinea pig type TGR5 expressing CHO cells were seeded in one 150 cm^2 flask at 1×10^7 cells, and cultured overnight at 37° C., 5% CO2. After culture, the cells were detached with 0.5 mM EDTA/PBS, washed with PBS, and suspended in Buffer 1 (HBSS+0.1% BSA, 25 mM HEPES pH 7.3, 0.5 mM IBMX) at a density of 1×10^7 cells/ml. The obtained cell suspension (460 μl), anti-cAMP acceptor beads (23 μl) of AlphaScreen cAMP assay kit (Perkin Elmer) and Buffer 1 (667 μl) were mixed and dispensed to a white 96 well plate (Costar) by 10 μl. Then, a test compound diluted with Buffer 1 was added to each well by 10 μl. At this time, one row of the plate was free of the cell suspension but added with anti-cAMP acceptor beads (9 μl) and Buffer 1 (441 μl) alone, and serial dilutions of cAMP were added instead of the test compound and used as the standard. A mixture of the cell suspension and the test compound contained in the plate was allowed to react at room temperature for 30 min. […] The plate was shaken at room temperature for 2.5 hrs and fluorescence intensity was measured by Fusion α (Parkin Elmer), and the cAMP concentration of each well was calculated using the cAMP standard on each plate.

[4] = biological target: T1, rat TGR5 (Rattus norvegicus, UniProt Q80T02); assay: cAMP production increasing activity in rat type TGR5 expressing CHO cells; type: cell-based; settings: 0.5 h, read-out: cAMP producing activity (control %)
T1 construct: expressed in transfected cells; host or cells: CHO cells
T1 sequence (Q80T02 1-329): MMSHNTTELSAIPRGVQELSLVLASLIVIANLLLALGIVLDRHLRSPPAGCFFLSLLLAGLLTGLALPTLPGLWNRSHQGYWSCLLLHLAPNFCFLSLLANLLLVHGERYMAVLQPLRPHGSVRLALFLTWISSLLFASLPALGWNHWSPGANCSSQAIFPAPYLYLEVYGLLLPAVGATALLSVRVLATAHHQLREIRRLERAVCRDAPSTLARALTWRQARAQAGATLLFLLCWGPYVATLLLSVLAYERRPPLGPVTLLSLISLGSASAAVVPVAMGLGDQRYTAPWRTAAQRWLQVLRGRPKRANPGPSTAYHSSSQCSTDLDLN
Description: as §1, with “After” for “The guinea pig type TGR5 expressing CHO cells were seeded in one 150 cm^2 flask at 1×10^7 cells, and cultured overnight at 37° C., 5% CO2. After”

[5] = biological target: T2, human TGR5 (Homo sapiens, UniProt Q8TDU6); assay: cAMP production increasing activity in human TGR5 expressing CHO cells; type: cell-based; settings: read-out: EC50 value (concentration necessary to make the cAMP production amount 50%)
T2 construct: expressed in transfected cells; host or cells: CHO cells
T2 sequence (Q8TDU6 1-330): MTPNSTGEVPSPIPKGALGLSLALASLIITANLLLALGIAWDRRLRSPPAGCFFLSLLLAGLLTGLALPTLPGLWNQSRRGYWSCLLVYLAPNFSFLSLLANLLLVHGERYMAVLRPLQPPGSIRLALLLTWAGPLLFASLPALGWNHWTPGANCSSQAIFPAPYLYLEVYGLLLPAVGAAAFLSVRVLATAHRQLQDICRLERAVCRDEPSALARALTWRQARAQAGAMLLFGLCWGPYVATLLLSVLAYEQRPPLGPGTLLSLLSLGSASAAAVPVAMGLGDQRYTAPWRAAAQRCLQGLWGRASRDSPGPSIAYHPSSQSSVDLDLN

[6] = test system: THP-TGR5 cells; assay: suppression of LPS induced TNF α secretion in THP-TGR5 cells; type: cell-based, human; settings: non-addition: 11 with LPS, 2.7 without LPS
Description: TGR5 high expression cells were established by introducing TGR5 gene into human macrophage cells line THP-1. According to a conventional method, pcDNA-TGR5 incorporating cDNA of human TGR5 in pcDNA3.1 (Invitrogen) was prepared. Then, THP-1 was cultured in a medium (RPMI1640 10% FBS), and pcDNA-TGR5 was introduced thereinto using lipofectamine (Gibco BRL) according to conventional methods. Thereafter, G418 (Gibco BRL) was added to the medium to select resistant strains, and cells line, THP-TGR5 that expresses TGR5 stably and highly was established.
THP-TGR5 thus obtained was diluted to a concentration of 1×10^5/well and cultured overnight in a 96 well plate in the presence of 10^−8M phorbol ester (Wako Pure Chemical Industries, Ltd.). THP-TGR5 after culture was cultured for 1 hr in a medium containing a test compound or a control medium (0.1 ml) free of a test compound, 0.1 ml of a medium containing the same concentration of the test compound or a control medium free of the test compound, each of which containing LPS for induction of TNF α secretion was added (concentration at the time of addition 50 ng/ml) and the mixture was incubated at 37° C. under 5% CO2 for 14 hrs. The culture supernatant was collected and the TNF α content was measured with the growth suppressing effect on the TNF sensitive cell line L929 (RIKEN Institute) as an index.
L929 cells were seeded in a 96 well plate at 1.2×10^4/well and incubated overnight at 37° C. under 5% CO2. The obtained culture product was cultured overnight in a medium (phenol red free Dulbecco's Modified Eagle Medium (Invitrogen) supplemented with 10% fetal bovine serum (Invitrogen), 100 U/ml penicillin and 100 μg/ml streptomycin), which contained the aforementioned THP-TGR5-containing culture supernatant and 2 μg/ml Actinomycin D (Wako Pure Chemical Industries, Ltd.). The TNF α content was determined by measuring the growth of the L929 cells in the obtained culture product using a Cell Counting Kit-8 (Wako Pure Chemical Industries, Ltd.). As the standard sample, human recombinant TNF α (Genzyme) was used.

[7] = test system: mock CHO cells free of human TGR5 expression; assay: cAMP production increasing activity in mock CHO cells free of human TGR5 expression; type: cell-based; settings: average of 3 groups
Description: As the assay buffer, Hank's balanced salt solution (HBSS, Invitrogen) supplemented with 0.1% bovine serum albumin (BSA, Sigma) and 0.2 mM 3-isobutyl-1-methylxanthine (IBMX, Sigma) was used. The cells were washed twice with the assay buffer and preincubated at 37° C. for 30 min. The cells were washed twice, and test compound samples (10 μM) diluted with the assay buffer to various concentrations were added. The cells were incubated at 37° C. for 20 min. The culture supernatant was discarded, and the cAMP production amount was measured using a cAMP Screen System (ABI).

[8] = biological target: T2, human TGR5; assay: cAMP production increasing activity in human TGR5 expressing CHO cells; type: cell-based; settings: test compound 1 μM, 30 min; 1 μM lithocholic acid = 100%, no addition = 0%; average of 3 groups
Description: As the assay buffer, Hank's balanced salt solution (HBSS, Invitrogen) supplemented with 0.1% bovine serum albumin (BSA, Sigma) and 0.5 mM 3-isobutyl-1-methylxanthine (IBMX, Sigma) was used. A test compound sample (1 μM) diluted with the assay buffer was added to the cells. The cells were incubated at 37° C. for 30 min. and the supernatant was suctioned. The intracellular cAMP amount increased by the stimulation of the test compound was quantitatively determined using a HitHunter™ EFC Cyclic AMP Chemiluminescence Assay Kit (ABI) kit.

SMILES: COC(=O)NCc1cccc(C2OC(CC(=O)NCc3ccccc3F)C(=O)N(CC(C)(C)COC(C)=O)c3ccc(Cl)cc32)c1 (stereo not drawn) [Example 46, 3-[3,5-trans-7-chloro-3-[2-[(2-fluorobenzyl)amino]-2-oxoethyl]-5-[3-(methoxycarbonylaminomethyl)phenyl]-2-oxo-2,3-dihydro-4,1-benzoxazepin-1(5H)-yl]-2,2-dimethylpropyl acetate]
- cAMP production increasing activity (%) ([1]; 10 μM): 112%
- GLP-1 secretion increase (%) ([2]; 5 μM): 165%
- cAMP producing activity (control %) [3]: 77 control %
- activation at 2 µM [4]: 104%
- pEC50 [5]: > 7.00

SMILES: C[C@H](CCC(=O)O)[C@H]1CC[C@H]2[C@@H]3CC[C@@H]4C[C@H](O)CC[C@]4(C)[C@H]3CC[C@]12C [lithocholic acid, reference compound]
- TNF α ([6]; bile acid 50 μM): 1.1 ng/mL
- cAMP production increasing activity (%) ([1]; bile acid 50 μM): 107%
- GLP-1 secretion increase (%) ([2]; bile acid 25 μM): 121%

SMILES: CCOC(=O)CC1C(=O)N(CC(C)(C)C)c2ccccc2CN1C(=O)OC(C)(C)C (stereo not shown) [Reference Example 1B, tert-butyl 3-(2-ethoxy-2-oxoethyl)-1-neopentyl-2-oxo-1,2,3,5-tetrahydro-4H-1,4-benzodiazepine-4-carboxylate]
- TNF α ([6]; test compound 10 μM): 0.63 ng/mL

SMILES: C=C[C@@]1(C)CC(=O)[C@]2(O)[C@@]3(C)[C@@H](O)CCC(C)(C)[C@@H]3[C@H](O)[C@H](OC(C)=O)[C@@]2(C)O1 [Forskolin, reference compound]
- cAMP production increasing activity ([7]; Experimental Example 2, Forskolin 2 μM, Base 0.85): 4.02 pmol
- cAMP production increasing activity ([7]; Experimental Example 4, test compounds 2 μM, Base 0.28): 5.68 pmol
- cAMP production increasing activity ([7]; Experimental Example 5, test compounds 2 μM, Base 0.19): 3.01 pmol

SMILES: CC(=O)NCc1cccc([C@@H]2O[C@H](CC(=O)NCc3ccccc3F)C(=O)N(CC(C)(C)C)c3ccc(Cl)cc32)c1 (relative stereo) [Reference Example 3, 2-[3,5-trans-5-[3-(acetylaminomethyl)phenyl]-7-chloro-1-neopentyl-2-oxo-1,2,3,5-tetrahydro-4,1-benzoxazepin-3-yl]-N-(2-fluorobenzyl)acetamide]
- cAMP production increasing activity (control %) [8]: 85 control %
- TNF α ([6]; test compound 10 μM): 0.33 ng/mL

SMILES: COC(=O)NCc1cccc([C@@H]2O[C@H](CC(=O)NCc3ccccc3F)C(=O)N(CC(C)(C)C)c3ccc(Cl)cc32)c1 (relative stereo) [Reference Example 6, methyl [3-[3,5-trans-7-chloro-3-[2-[(2-fluorobenzyl)amino]-2-oxoethyl]-1-neopentyl-2-oxo-1,2,3,5-tetrahydro-4,1-benzoxazepin-5-yl]benzyl]carbamate]
- cAMP production increasing activity (control %) [8]: 98 control %
- TNF α ([6]; test compound 10 μM): 0.32 ng/mL
